# Results taken from ChEMBL document CHEMBL3853262 (Medchemcomm, 2016).
# pEC50: −log10 of the molar value.
# What was measured:
# Type in all cases: functional, cell-based
# [1] = tested on: ASPC1; experiment: Proapoptotic activity in human AsPC1 cells by annexin V-FITC/propidium iodide staining-based capillary cytometric method
# [2] = tested on: BXPC-3; experiment: Proapoptotic activity in human BxPC3 cells by annexin V-FITC/propidium iodide staining-based capillary cytometric method
# [3] = tested on: NTERA-2-cl-D1; experiment: Proapoptotic activity in human NT2/D1 cells by annexin V-FITC/propidium iodide staining-based capillary cytometric method
# [4] = tested on: BJ; experiment: Proapoptotic activity in human BJ cells by annexin V-FITC/propidium iodide staining-based capillary cytometric method
SMILES,pEC50 [1],pEC50 [2],pEC50 [3],pEC50 [4]
COc1ccc2[nH]c(C(=O)Nc3cccc(-c4c[nH]c(N)n4)c3)cc2c1,4.28,4.28,4.80,4.51
Nc1nc(-c2cccc(NC(=O)c3cc4cc(Cl)ccc4[nH]3)c2)c[nH]1,4.72,4.60,4.80,4.70
